# Key:
# PDGFR-β = PDGFR-β (Homo sapiens (Human), UniProt P09619); assay: PDGFR-β tyrosine kinase inhibitory action (HTRF KinEASE-TK); type: biochemical; settings: PDGFR-β enzyme 1 ng/μL, 30° C. for 30 minutes; read-out: PDGF-β IC50
# Protocol: (§1) 1. Preparation of Test Substance
# This DMSO solution was diluted by 8 times with an assay buffer 1 (50 mM HEPES (pH 7.0), 0.02% NaN3, 0.01% Bovine Serum Albumin, 0.1 mM orthovanadate, 1 mM Dithiothreitol, 5 mM MgCl2, and 1 mM MnCl2) and further diluted by 5 times with an assay buffer 2 (50 mM HEPES (pH 7.0), 0.02% NaN3, 0.01% Bovine Serum Albumin, 0.1 mM orthovanadate, 1 mM Dithiothreitol, 5 mM MgCl2, 1 mM MnCl2, and 40 nM Supplemented Enzymatic Buffer (cisbio)).
# 2. Measurement of PDGFR-β Tyrosine Kinase Inhibitory Action
# For the measurement, the HTRF KinEASE-TK kit from Cisbio Bioassays SAS was used. To a 384 well plate, the test substance solution was added at 4 μL each, then 2 μL of a PDGFR-β enzyme solution (final concentration of 1 ng/μL, Carna Biosciences, Inc.) and 4 μL of a substrate solution obtained by adding 0.6 μM ATP to TK substrate-3-biotin (cisbio) were added, and the solution was allowed to react at 30° C. for 30 minutes at a final concentration of the test substance being 0.01 to 10,000 nM.
# Thereafter, 10 μL of a detection solution (cisbio) was added to each well and allowed to react at 30° C. for 1 hour. The fluorescence intensity was measured with a microplate reader (Spectra Max M5, Molecular device).
# (§2) 3. Analysis of Measurement Results
# [1] = system: pulmonary arterial smooth muscle cells; assay: Suppression of proliferation of pulmonary arterial smooth muscle cells (PDGF-BB stimulation, BrdU); type: cell-based; settings: PASMC, 24 h; healthy human derived pulmonary arterial smooth muscle cells; human PDGF-BB 10 ng/mL stimulation; BrdU uptake after 1 day; test substance final concentration 3 to 10,000 nM; read-out: Human normal PASMC proliferation suppression (PDGF stimulation_IC50)
# Protocol: as §1
# Furthermore, it was diluted by 50 times with distilled water.
# 2. Measurement of Suppression Action Against Proliferation of Pulmonary Arterial Smooth Muscle Cells
# The day after healthy human derived pulmonary arterial smooth muscle cells were seeded onto a 96 well plate using a smooth muscle cell proliferation medium, the proliferation medium was replaced with a 0.1% FBS medium, and the cells were cultured for an additional day. A test substance solution was diluted by 10 times with a medium containing BrdU and human PDGF-BB (final concentration of 10 ng/mL, Sigma-Aldrich) and added to cells in equal amounts so as to reach a final concentration of 3 to 10,000 nM. Also, to the human PDGF-BB negative control, BrdU and 0.1% DMSO solution were added. After culturing for 1 day, the amount of BrdU taken up by the proliferating cells was measured using an anti-BrdU antibody.
# as §2
# Sequence of PDGFR-β (P09619 33-1106): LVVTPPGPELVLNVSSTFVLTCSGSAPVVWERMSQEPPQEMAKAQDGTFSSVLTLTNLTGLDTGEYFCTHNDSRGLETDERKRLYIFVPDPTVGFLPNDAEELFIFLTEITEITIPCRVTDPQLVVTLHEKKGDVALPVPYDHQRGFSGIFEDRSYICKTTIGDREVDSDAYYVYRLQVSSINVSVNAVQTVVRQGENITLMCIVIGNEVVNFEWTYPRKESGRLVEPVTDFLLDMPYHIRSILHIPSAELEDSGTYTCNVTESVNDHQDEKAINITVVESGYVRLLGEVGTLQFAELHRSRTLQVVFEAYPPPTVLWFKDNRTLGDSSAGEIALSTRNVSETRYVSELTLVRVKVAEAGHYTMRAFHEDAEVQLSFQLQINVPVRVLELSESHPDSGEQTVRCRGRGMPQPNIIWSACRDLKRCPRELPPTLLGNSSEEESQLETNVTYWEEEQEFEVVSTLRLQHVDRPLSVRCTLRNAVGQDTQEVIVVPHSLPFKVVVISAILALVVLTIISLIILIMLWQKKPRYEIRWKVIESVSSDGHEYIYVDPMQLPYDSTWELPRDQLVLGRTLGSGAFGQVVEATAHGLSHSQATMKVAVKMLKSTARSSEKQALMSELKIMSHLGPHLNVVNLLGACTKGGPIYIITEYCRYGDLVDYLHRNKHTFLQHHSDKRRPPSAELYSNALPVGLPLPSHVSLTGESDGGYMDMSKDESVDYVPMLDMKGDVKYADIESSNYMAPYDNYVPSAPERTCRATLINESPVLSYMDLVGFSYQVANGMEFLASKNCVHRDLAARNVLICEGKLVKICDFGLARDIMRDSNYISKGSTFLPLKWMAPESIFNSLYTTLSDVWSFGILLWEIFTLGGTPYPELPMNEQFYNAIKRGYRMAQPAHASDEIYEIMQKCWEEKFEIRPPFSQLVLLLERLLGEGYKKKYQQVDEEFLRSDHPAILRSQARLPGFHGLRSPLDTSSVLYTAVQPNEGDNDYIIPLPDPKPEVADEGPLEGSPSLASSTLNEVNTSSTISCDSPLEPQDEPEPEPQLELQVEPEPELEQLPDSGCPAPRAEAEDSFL
Compound,IC50 (PDGFR-β),IC50 [1]
"COc1cncc(C(=O)Nc2cc(C(=O)N[C@H]3CCCC[C@@H]3O)ccc2C)c1 [Example 49, N-(5-{[(1S,2S)-2-hydroxycyclohexyl]carbamoyl}-2-methylphenyl)-5-methoxypyridine-3-carboxamide]",120 nM,250 nM
"CCOc1cncc(C(=O)Nc2cc(C(=O)N[C@H]3CCCC[C@@H]3O)ccc2C)c1 [Example 50, 5-ethoxy-N-(5-{[(1S,2S)-2-hydroxycyclohexyl]carbamoyl}-2-methylphenyl)pyridine-3-carboxamide]",61 nM,270 nM
"Cc1ccc(C(=O)N[C@H]2CCCC[C@@H]2O)cc1NC(=O)c1cncc(Oc2ccccn2)c1 [Example 51, N-(5-{[(1S,2S)-2-hydroxycyclohexyl]carbamoyl}-2-methylphenyl)-5-[(pyridin-2-yl)oxy]pyridine-3-carboxamide]",61 nM,180 nM
"Cc1ccc(C(=O)N[C@H]2CCCC[C@@H]2O)cc1NC(=O)c1cncc(Oc2ncccn2)c1 [Example 52, N-(5-{[(1S,2S)-2-hydroxycyclohexyl]carbamoyl}-2-methylphenyl)-5-[(pyrimidin-2-yl)oxy]pyridine-3-carboxamide]",77 nM,420 nM
"O=C(N[C@H]1CCCC[C@@H]1O)c1ccc(Cl)c(NC(=O)c2cnc(CC3CC3)s2)c1 [Example 55, N-(2-chloro-5-{[(1S,2S)-2-hydroxycyclohexyl]carbamoyl}phenyl)-2-(cyclopropylmethyl)-1,3-thiazole-5-carboxamide]",83 nM,69 nM
"O=C(Nc1cc(C(=O)N[C@H]2CCCC[C@@H]2O)ccc1F)c1cncc(OCC2CC2)c1 [Example 56, 5-(cyclopropylmethoxy)-N-(2-fluoro-5-{[(1S,2S)-2-hydroxycyclohexyl]carbamoyl}phenyl)pyridine-3-carboxamide]",120 nM,240 nM
"Cc1ncc(C(=O)N[C@H]2CCCC[C@@H]2O)cc1C#Cc1cncc(C2CC2)c1 [Example 73, 5-[(5-cyclopropylpyridin-3-yl)ethynyl]-N-[(1S,2S)-2-hydroxycyclohexyl]-6-methylpyridine-3-carboxamide]",220 nM,80 nM
"Cc1ccc(C(=O)N[C@H]2CCCC[C@@H]2O)cc1C#Cc1cncc(Br)n1 [Example 74, 3-[(6-bromopyrazin-2-yl)ethynyl]-N-[(1S,2S)-2-hydroxycyclohexyl]-4-methylbenzamide]",180 nM,18 nM
"Cc1ccc(C(=O)N[C@H]2CCCC[C@@H]2O)cc1NCc1cnc2cccnn12 [Example 110, N-[(1S,2S)-2-hydroxycyclohexyl]-3-{[(imidazo[1,2-b]pyridazin-3-yl)methyl]amino}-4-methylbenzamide]",350 nM,240 nM
"Cc1ccc(C(=O)N[C@H]2CCCC[C@@H]2O)cc1NCc1cncc(-c2cn3ccnc3cn2)c1 [Example 111, N-[(1S,2S)-2-hydroxycyclohexyl]-3-({[5-(imidazo[1,2-a]pyrazin-6-yl)pyridin-3-yl]methyl}amino)-4-methylbenzamide]",150 nM,380 nM
"CC(=O)Nc1ccc(CNc2cc(C(=O)N[C@H]3CCCC[C@@H]3O)ccc2C)cn1 [Example 116, 3-{[(6-acetamidopyridin-3-yl)methyl]amino}-N-[(1S,2S)-2-hydroxycyclohexyl]-4-methylbenzamide]",,120 nM
"Cc1ccc(C(=O)N[C@H]2CCCC[C@@H]2O)cc1NCc1ccc(NCC2CC2)nc1 [Example 117, 3-[({6-[(cyclopropylmethyl)amino]pyridin-3-yl}methyl)amino]-N-[(1S,2S)-2-hydroxycyclohexyl]-4-methylbenzamide]",79 nM,230 nM
"Cc1ccc(C(=O)N[C@H]2CCCC[C@@H]2O)cc1NCc1ccc(-c2ccccn2)nc1 [Example 118, 3-{[([2,2′-bipyridin]-5-yl)methyl]amino}-N-[(1S,2S)-2-hydroxycyclohexyl]-4-methylbenzamide]",390 nM,140 nM
"Cc1ccc(C(=O)N[C@H]2CCCC[C@@H]2O)cc1NCc1cnn2cccnc12 [Example 119, N-[(1S,2S)-2-hydroxycyclohexyl]-4-methyl-3-{[(pyrazolo[1,5-a]pyrimidin-3-yl)methyl]amino}benzamide]",330 nM,93 nM
"Cc1ccc(C(=O)N[C@H]2CCCC[C@@H]2O)cc1OC(C)c1cncc(-c2ccccc2)c1 (stereo partly drawn) [Example 172, N-[(1S,2S)-2-hydroxycyclohexyl]-4-methyl-3-[1-(5-phenylpyridin-3-yl)ethoxy]benzamide]",190 nM,

# The remaining compounds from weak to strong by IC50 (PDGFR-β), led by results:
IC50 (PDGFR-β),Compound,IC50 [1]
50 nM,"CCN(Cc1cc(C(=O)N[C@H]2CCCC[C@@H]2O)ccc1C)c1cncc(-c2ccccc2)c1 [Example 176, 3-{[ethyl(5-phenylpyridin-3-yl)amino]methyl}-N-[(1S,2S)-2-hydroxycyclohexyl]-4-methylbenzamide]",
49 nM,"Cc1ccc(C(=O)N[C@@H](CO)[C@@H](O)c2ccccc2)cc1C#Cc1cncc(Br)c1 [Example 76, 3-[(5-bromopyridin-3-yl)ethynyl]-N-[(1S,2S)-1,3-dihydroxy-1-phenylpropan-2-yl]-4-methylbenzamide]",27 nM
46 nM,"Cc1ccc(C(=O)N[C@H]2CCCC[C@@H]2O)cc1NCc1cnc2[nH]ncc2c1 [Example 109, N-[(1S,2S)-2-hydroxycyclohexyl]-4-methyl-3-{[(1H-pyrazolo[3,4-b]pyridin-5-yl)methyl]amino}benzamide]",170 nM
40 nM,"Cc1ccc(C(=O)N[C@H]2CCCC[C@@H]2O)cc1NC(=O)c1cncc(OCC2CC(F)(F)C2)c1 [Example 54, 5-[(3,3-difluorocyclobutyl)methoxy]-N-(5-{[(1S,2S)-2-hydroxycyclohexyl]carbamoyl}-2-methylphenyl)pyridine-3-carboxamide]",340 nM
27 nM,"CNc1ncc2c(Nc3cc(C(=O)N[C@H]4CCCC[C@@H]4O)ccc3C)cccc2n1 [Example 82, N-[(1S,2S)-2-hydroxycyclohexyl]-4-methyl-3-{[2-(methylamino)quinazolin-5-yl]amino}benzamide]",72 nM
24 nM,"Cc1ccc(C(=O)N[C@H]2CCCC[C@@H]2O)cc1CN(C)c1cncc(-c2ccccc2)c1 [Example 175, N-[(1S,2S)-2-hydroxycyclohexyl]-4-methyl-3-{[methyl(5-phenylpyridin-3-yl)amino]methyl}benzamide]",
12 nM,"Cc1ccc(C(=O)N[C@H]2CCCC[C@@H]2O)cc1NC(=O)c1cncc(OCC2(C)CC2)c1 [Example 53, N-(5-{[(1S,2S)-2-hydroxycyclohexyl]carbamoyl}-2-methylphenyl)-5-[(1-methylcyclopropyl)methoxy]pyridine-3-carboxamide]",71 nM
10 nM,"Cc1ccc(C(=O)N[C@H]2CCCC[C@@H]2O)cc1C#Cc1cncc(NCC2CC2)n1 [Example 72, 3-({6-[(cyclopropylmethyl)amino]pyrazin-2-yl}ethynyl)-N-[(1S,2S)-2-hydroxycyclohexyl]-4-methylbenzamide]",70 nM
5 nM,"Cc1ccc(C(=O)N[C@@H](CO)[C@@H](O)c2ccccc2)cc1N1CCc2nc(N)ncc2C1 [Example 83, 3-(2-amino-7,8-dihydropyrido[4,3-d]pyrimidin-6(5H)-yl)-N-[(1S,2S)-1,3-dihydroxy-1-phenylpropan-2-yl]-4-methylbenzamide]",48 nM

# Source: patent publication US12509424B2, “Compound and composition as PDGF receptor kinase inhibitor” (NIPPON SHINYAKU CO., LTD., priority 2019, dated 2025)
